According to ChEMBL document CHEMBL1201862, “PubChem BioAssay data set” (2004):
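Tested at 5 concentrations; 48 h exposure; 96-well plates; endpoints linearly interpolated, else capped at highest concentration. GI50 marks 50% less growth.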 Activity calls are given as the source filed them. Rule as the data show it: active = GI50 up to about 1.1 µM and inactive = higher.

Columns and labels:
Experiment in all cases: NCI tumour cell line growth inhibition, 48 h
SNB-75 = system: SNB-75
OVCAR-3 = system: OVCAR-3
SK-MEL-2 = system: SK-MEL-2
SNB-19 = system: SNB-19
SF-295 = system: SF-295
Hs-578T = system: Hs-578T
UACC-257 = system: UACC-257
ACHN = system: ACHN
HT-29 = system: HT-29
MOLT-4 = system: MOLT-4
CAKI-1 = system: CAKI-1
SW-620 = system: SW-620
OVCAR-5 = system: OVCAR-5
IGROV-1 = system: IGROV-1
NCI/ADR-RES = system: NCI/ADR-RES
HOP-62 = system: HOP-62
UACC-62 = system: UACC-62
A498 = system: A498
CCRF-CEM = system: CCRF-CEM
PC-3 = system: PC-3
SK-MEL-28 = system: SK-MEL-28
A549 = system: A549
EKVX = system: EKVX
M14 = system: M14
SN12C = system: SN12C
SF-539 = system: SF-539
U-251 = system: U-251
NCI-H522 = system: NCI-H522
MDA-MB-231 = system: MDA-MB-231
MDA-MB-435 = system: MDA-MB-435
LOX IMVI = system: LOX IMVI
NCI-H23 = system: NCI-H23
RXF 393 = system: RXF 393
HCT-116 = system: HCT-116
Malme-3M = system: Malme-3M
UO-31 = system: UO-31
HOP-92 = system: HOP-92
NCI-H460 = system: NCI-H460
SK-OV-3 = system: SK-OV-3
OVCAR-8 = system: OVCAR-8
COLO 205 = system: COLO 205
OVCAR-4 = system: OVCAR-4
T47D = system: T47D
HCT-15 = system: HCT-15
MDA-N = system: MDA-N
HL-60 = system: HL-60
HCC 2998 = system: HCC 2998
DU-145 = system: DU-145
TK-10 = system: TK-10
786-0 = system: 786-0
SK-MEL-5 = system: SK-MEL-5
MCF7 = system: MCF7
KM12 = system: KM12
K562 = system: K562
NCI-H226 = system: NCI-H226
SF-268 = system: SF-268
RPMI-8226 = system: RPMI-8226
SR = system: SR

Cc1nc(O)nc(N(CCO)/N=C/c2ccc(Cl)cc2)c1C(=O)Nc1ccc(Cl)cc1
GI50 (SNB-75): 55.2 µM (inactive) | GI50 (OVCAR-3): > 100 µM (inactive) | GI50 (SK-MEL-2): 34.4 µM (inactive) | GI50 (SNB-19): 83.9 µM (inactive) | GI50 (SF-295): > 100 µM (inactive) | GI50 (Hs-578T): 32.5 µM (inactive) | GI50 (UACC-257): > 100 µM (inactive) | GI50 (ACHN): > 100 µM (inactive) | GI50 (HT-29): > 100 µM (inactive) | GI50 (MOLT-4): > 100 µM (inactive) | GI50 (CAKI-1): > 100 µM (inactive) | GI50 (SW-620): > 100 µM (inactive) | GI50 (OVCAR-5): > 100 µM (inactive) | GI50 (IGROV-1): > 100 µM (inactive) | GI50 (NCI/ADR-RES): > 100 µM (inactive) | GI50 (HOP-62): 59.7 µM (inactive) | GI50 (UACC-62): > 100 µM (inactive) | GI50 (A498): > 100 µM (inactive) | GI50 (CCRF-CEM): > 100 µM (inactive) | GI50 (PC-3): > 100 µM (inactive) | GI50 (SK-MEL-28): > 100 µM (inactive) | GI50 (A549): > 100 µM (inactive) | GI50 (EKVX): > 100 µM (inactive) | GI50 (M14): 87.3 µM (inactive) | GI50 (SN12C): > 100 µM (inactive) | GI50 (SF-539): > 100 µM (inactive) | GI50 (U-251): 21.3 µM (inactive) | GI50 (NCI-H522): > 100 µM (inactive) | GI50 (MDA-MB-231): 36.7 µM (inactive) | GI50 (MDA-MB-435): > 100 µM (inactive) | GI50 (LOX IMVI): > 100 µM (inactive) | GI50 (NCI-H23): > 100 µM (inactive) | GI50 (RXF 393): 24.7 µM (inactive) | GI50 (HCT-116): 57.8 µM (inactive) | GI50 (Malme-3M): 26.1 µM (inactive) | GI50 (UO-31): > 100 µM (inactive) | GI50 (HOP-92): > 100 µM (inactive) | GI50 (NCI-H460): > 100 µM (inactive) | GI50 (SK-OV-3): 58.2 µM (inactive) | GI50 (OVCAR-8): 99.5 µM (inactive) | GI50 (COLO 205): > 100 µM (inactive) | GI50 (OVCAR-4): > 100 µM (inactive) | GI50 (T47D): 98.4 µM (inactive) | GI50 (HCT-15): > 100 µM | GI50 (MDA-N): > 100 µM (inactive) | GI50 (HL-60): > 100 µM (inactive) | GI50 (HCC 2998): > 100 µM (inactive) | GI50 (DU-145): > 100 µM (inactive) | GI50 (TK-10): 85.3 µM (inactive) | GI50 (786-0): > 100 µM (inactive) | GI50 (SK-MEL-5): > 100 µM (inactive) | GI50 (MCF7): > 100 µM (inactive) | GI50 (KM12): > 100 µM (inactive) | GI50 (K562): > 100 µM (inactive) | GI50 (NCI-H226): 72.6 µM (inactive) | GI50 (SF-268): 89.7 µM (inactive)

COc1ccccc1NC(=S)NN=C(C)c1cccc(C(C)=NNC(=S)Nc2ccccc2OC)n1
GI50 (SNB-75): 94.6 µM (inactive) | GI50 (OVCAR-3): 7.87 µM (inactive) | GI50 (SK-MEL-2): 44.9 µM (inactive) | GI50 (SNB-19): 77.4 µM (inactive) | GI50 (SF-295): 26.8 µM (inactive) | GI50 (RPMI-8226): 24.6 µM (inactive) | GI50 (UACC-257): 25.8 µM (inactive) | GI50 (ACHN): 14.7 µM (inactive) | GI50 (HT-29): 18 µM (inactive) | GI50 (MOLT-4): 3.54 µM (inactive) | GI50 (CAKI-1): 82.2 µM (inactive) | GI50 (SW-620): 7.73 µM (inactive) | GI50 (OVCAR-5): > 100 µM (inactive) | GI50 (IGROV-1): 25.5 µM (inactive) | GI50 (NCI/ADR-RES): 10.4 µM (inactive) | GI50 (HOP-62): 42.8 µM (inactive) | GI50 (UACC-62): 20.5 µM (inactive) | GI50 (A498): 29.1 µM (inactive) | GI50 (SR): 1.66 µM (inactive) | GI50 (CCRF-CEM): 4.78 µM (inactive) | GI50 (PC-3): 27 µM (inactive) | GI50 (SK-MEL-28): 79.4 µM (inactive) | GI50 (A549): 29.2 µM (inactive) | GI50 (EKVX): 24 µM (inactive) | GI50 (M14): 5.06 µM (inactive) | GI50 (SN12C): 30 µM (inactive) | GI50 (SF-539): 19.9 µM (inactive) | GI50 (U-251): 34.3 µM (inactive) | GI50 (NCI-H522): 45.6 µM (inactive) | GI50 (MDA-MB-231): 5.16 µM (inactive) | GI50 (MDA-MB-435): 23 µM (inactive) | GI50 (LOX IMVI): 31.8 µM (inactive) | GI50 (NCI-H23): 33.9 µM (inactive) | GI50 (RXF 393): 12.9 µM (inactive) | GI50 (HCT-116): 2.95 µM (inactive) | GI50 (Malme-3M): 3.49 µM (inactive) | GI50 (UO-31): 20.6 µM (inactive) | GI50 (HOP-92): 21.7 µM (inactive) | GI50 (NCI-H460): 24 µM (inactive) | GI50 (SK-OV-3): 99.8 µM (inactive) | GI50 (OVCAR-8): 12.9 µM (inactive) | GI50 (COLO 205): 19.6 µM (inactive) | GI50 (OVCAR-4): 24.4 µM (inactive) | GI50 (T47D): > 100 µM (inactive) | GI50 (HCT-15): 28.5 µM | GI50 (MDA-N): 70.5 µM (inactive) | GI50 (HL-60): 26.3 µM (inactive) | GI50 (HCC 2998): > 100 µM (inactive) | GI50 (DU-145): 24 µM (inactive) | GI50 (TK-10): 0.18 µM (active) | GI50 (786-0): 6.64 µM (inactive) | GI50 (SK-MEL-5): 3.94 µM (inactive) | GI50 (MCF7): 29.1 µM (inactive) | GI50 (KM12): 26.1 µM (inactive) | GI50 (K562): 20 µM (inactive) | GI50 (NCI-H226): 28.4 µM (inactive) | GI50 (SF-268): 15.9 µM (inactive)

CN(Cc1cnc2nc(N)nc(N)c2n1)c1ccc(C(=O)NC(CCC(=O)NCC(P(=O)(O)O)P(=O)(O)O)C(=O)O)cc1 (stereo unspecified)
GI50 (SNB-75): 57.3 µM (inactive) | GI50 (OVCAR-3): 23 µM (inactive) | GI50 (SK-MEL-2): > 100 µM (inactive) | GI50 (SF-295): 0.706 µM (active) | GI50 (Hs-578T): 37.1 µM (inactive) | GI50 (UACC-257): 12.6 µM (inactive) | GI50 (ACHN): 3.57 µM (inactive) | GI50 (HT-29): 5.27 µM (inactive) | GI50 (MOLT-4): 3.18 µM (inactive) | GI50 (SW-620): 4.7 µM (inactive) | GI50 (IGROV-1): 9.04 µM (inactive) | GI50 (NCI/ADR-RES): 35.5 µM (inactive) | GI50 (HOP-62): 5.11 µM (inactive) | GI50 (UACC-62): 4.41 µM (inactive) | GI50 (SR): < 0.01 µM (active) | GI50 (PC-3): 0.436 µM (active) | GI50 (A549): 4.99 µM (inactive) | GI50 (EKVX): > 100 µM (inactive) | GI50 (M14): 6.01 µM (inactive) | GI50 (SN12C): 7.21 µM (inactive) | GI50 (NCI-H522): 20.2 µM (inactive) | GI50 (MDA-MB-231): > 100 µM (inactive) | GI50 (LOX IMVI): 2.52 µM (inactive) | GI50 (HCT-116): 0.815 µM (active) | GI50 (Malme-3M): > 100 µM (inactive) | GI50 (HOP-92): < 0.01 µM (active) | GI50 (NCI-H460): 4.4 µM (inactive) | GI50 (SK-OV-3): 15.7 µM (inactive) | GI50 (OVCAR-8): 7.6 µM (inactive) | GI50 (COLO 205): > 100 µM (inactive) | GI50 (OVCAR-4): 1.64 µM (inactive) | GI50 (T47D): 40 µM (inactive) | GI50 (HCT-15): 5.94 µM | GI50 (MDA-N): 4.97 µM (inactive) | GI50 (DU-145): 7.16 µM (inactive) | GI50 (786-0): 81.1 µM (inactive) | GI50 (SK-MEL-5): 13.3 µM (inactive) | GI50 (SF-268): 6.11 µM (inactive)
